Assay [1] has as its target ER in MCF-7 cells (Homo sapiens (Human), UniProt P03372). In words: In-cell Western (ICW) ER degradation assay in MCF-7 cells. It counts as cell-based. Particulars: for DC50: MCF-7, ER degradation, read-out: MCF7 DC50.
For assay [2], the system named is MCF-7 cells. Put plainly: CellTiter-Glo (CTG) cell proliferation assay in MCF-7 cells. It counts as cell-based. Particulars: Homo sapiens, MCF7, 144 h, MCF-7 cell proliferation, Day 6. The text has this: CellTiter-Glo® (CTG) Assays in MCF-7 and T47D Cell Lines.
In vitro Assay: MCF-7 and T47D CTG assay

The mark [3] stands for this setting: MCF7, read-out: MCF7 Dmax, MCF-7, maximal ER degradation, 16 hrs treatment.
The mark [4] stands for this setting: MCF7, MCF-7, maximal ER degradation, 16 hrs treatment, read-out: MCF7 Dmax.

Here are results for 14 compounds from patent US20260028354A1, “TETRAHYDRONAPHTHALENE DERIVATIVES AS ESTROGEN RECEPTOR DEGRADERS” (REGENT OF THE UNIVERSITY OF MICHIGAN, priority 2022, published 2026).

Molecules are shown by their SMILES. Where two headings read alike, the source gives them in different places.

A word on the Dmax: it is the largest share of the target that was removed. Broadly, the DC50 is the concentration giving 50% degradation. The term IC50 denotes the concentration at which inhibition is half-maximal. Low readings indicate greater potency in that assay, high ones weaker potency in that assay.

ER in MCF-7 cells, sequence (P03372 whole entry): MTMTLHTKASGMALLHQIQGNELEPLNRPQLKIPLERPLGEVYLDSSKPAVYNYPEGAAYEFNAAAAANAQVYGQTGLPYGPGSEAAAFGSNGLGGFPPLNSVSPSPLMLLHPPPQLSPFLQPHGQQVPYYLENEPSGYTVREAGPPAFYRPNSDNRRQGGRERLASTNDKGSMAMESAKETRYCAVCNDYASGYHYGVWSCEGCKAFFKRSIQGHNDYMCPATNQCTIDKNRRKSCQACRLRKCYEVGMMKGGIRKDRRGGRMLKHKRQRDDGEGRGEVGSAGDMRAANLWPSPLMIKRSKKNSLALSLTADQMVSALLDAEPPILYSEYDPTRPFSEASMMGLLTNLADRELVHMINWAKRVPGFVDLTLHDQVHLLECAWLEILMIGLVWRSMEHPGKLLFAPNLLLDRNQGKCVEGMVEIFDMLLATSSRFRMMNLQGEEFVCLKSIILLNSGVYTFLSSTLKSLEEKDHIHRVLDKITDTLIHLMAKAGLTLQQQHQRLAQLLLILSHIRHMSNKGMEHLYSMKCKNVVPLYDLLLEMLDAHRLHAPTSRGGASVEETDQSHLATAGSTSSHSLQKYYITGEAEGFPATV

Turning to `O=C1CC[C@H](N2Cc3cc4c(cc3C2=O)OCC42CCN(CC3CC4(CCN(c5cnc(C6c7ccc(O)cc7CCC6c6ccccc6)cn5)CC4)C3)CC2)C(=O)N1` (stereo partly drawn) [Compound A202, (3S)-3-(1′-((7-(5-(6-hydroxy-2-phenyl-1,2,3,4-tetrahydronaph-thalen-1-yl)pyrazin-2-yl)-7-azaspiro[3.5]nonan-2-yl)meth-yl)-7-oxo-5,7-dihydro-2H,6H-spiro[furo[2,3-f]isoindole-3,4′-piperidin]-6-yl)piperidine-2,6-dione], the Dmax in assay [1] (setting [3]) was 50 to 75%. Also, the DC50 in assay [1] (16 hrs treatment) was less than 1 nM. In assay [2], the IC50 is more than 100 nM.
For the compound `COc1cc(N2CC3(CC(CN4CCC5(CC4)COc4c5ccc5c4CN([C@H]4CCC(=O)NC4=O)C5=O)C3)C2)c(F)cc1[C@@H]1c2ccc(O)cc2CC[C@@H]1c1ccccc1` [Compound A184, (S)-3-(1′-((2-(2-fluoro-4-((1S, 2S)-6-hydroxy-2-phenyl-1,2,3,4-tetrahydronaphthalen-1-yl)-5-methoxyphenyl)-2-aza-spiro[3.3]heptan-6-yl)methyl)-6-oxo-6,8-dihydro-2H,7H-spiro[furo[2,3-e]isoindole-3,4′-piperidin]-7-yl)piperidine-2,6-dione], the Dmax in assay [1] (setting [3]) was in the range of 50 to 75%. The compound further came in with an IC50 in assay [2] of more than 100 nM.
With `COc1cc(N2CC(CCN3CCC4(CC3)COc3cc5c(cc34)CN([C@H]3CCC(=O)NC3=O)C5=O)C2)c(F)cc1[C@@H]1c2ccc(O)cc2CC[C@@H]1c1ccccc1` [Compound A205, (S)-3-(1′-(2-(1-(2-fluoro-4-((1S,2S)-6-hydroxy-2-phenyl-1,2,3,4-tetrahydronaphthalen-1-yl)-5-methoxyphenyl)-azet-idin-3-yl)ethyl)-7-oxo-5,7-dihydro-2H,6H-spiro[furo[2,3-f]isoindole-3,4′-piperidin]-6-yl)piperidine-2,6-dione], in assay [1] (setting [3]), the Dmax was in the range of 25 to 50%. In addition, in assay [1] (16 hrs treatment), the DC50 lay within 1 to 10 nM. In addition, the IC50 in assay [2] was more than 100 nM.
Taken in the same sequence, the figures for `COc1cc(N2CCC3(CC[C@@H](CN4CCC5(CC4)COc4c5cc(C)c5c4CN([C@H]4CCC(=O)NC4=O)C5=O)CO3)CC2)c(F)cc1[C@@H]1c2ccc(O)cc2CC[C@@H]1c1ccccc1` [Compound A227, (S)-3-(1′-(((S)-9-(2-fluoro-4-((1S,2S)-6-hydroxy-2-phenyl-1,2,3,4-tetrahydronaphthalen-1-yl)-5-methoxyphenyl)-1-oxa-9-azaspiro[5.5]undecan-3-yl)methyl)-5-methyl-6-oxo-6,8-dihydro-2H,7H-spiro[furo[2,3-e]isoindole-3,4′-piperidin]-7-yl)piperidine-2,6-dione] were more than 75%, less than 1 nM and less than 10 nM.
`O=C1CC[C@H](N2Cc3c(ccc4c3OCC43CCN(CC4CC5(CCN(c6cnc(C7c8ccc(O)cc8CCC7c7ccccc7)cn6)CC5)C4)CC3)C2=O)C(=O)N1` (stereo partly drawn) [Compound A201, (3S)-3-(1′-((7-(5-(6-hydroxy-2-phenyl-1,2,3,4-tetrahydro-naphthalen-1-yl)pyrazin-2-yl)-7-azaspiro[3.5]nonan-2-yl)-methyl)-6-oxo-6,8-dihydro-2H, 7H-spiro[furo[2,3-e]isoindole-3,4′-piperidin]-7-yl)piperidine-2,6-dione]: the Dmax in assay [1] (setting [3]) was 50 to 75%. Also, the DC50 in assay [1] (16 hrs treatment) is less than 1 nM. In addition, the IC50 in assay [2] is more than 100 nM.
Take `COc1cc(N2CC3(CCC(CN4CCC5(CC4)COc4nc(C(=O)N[C@H]6CCC(=O)NC6=O)ccc45)CC3)C2)c(F)cc1[C@@H]1c2ccc(O)cc2CC[C@@H]1c1ccccc1` [Compound A179, N-((S)-2,6-dioxopiperidin-3-yl)-1′-((2-(2-fluoro-4-((1S,2S)-6-hydroxy-2-phenyl-1,2,3,4-tetrahydronaphthalen-1-yl)-5-methoxyphenyl)-2-azaspiro [3.5]nonan-7-yl)methyl)-2H-spiro[furo[2,3-b]pyridine-3,4′-piperidine]-6-carboxamide]: the greatest degradation seen (Dmax) in assay [1] (setting [3]) is more than 75%. For the same compound, the DC50 in assay [1] (16 hrs treatment) is less than 1 nM. In assay [2], this compound showed an IC50 of more than 100 nM.
Taken in the same sequence, the figures for `O=C1CC[C@H](N2Cc3c4c(cc(Cl)c3C2=O)C2(CCN(C[C@@H]3CCC5(CCN(c6ccc([C@@H]7c8ccc(O)cc8CC[C@@H]7c7ccccc7)cc6)CC5)OC3)CC2)CO4)C(=O)N1` [Compound A233, (S)-3-(5-chloro-1′-(((S)-9-(4-((1R,2S)-6-hydroxy-2-phenyl-1,2,3,4-tetrahydronaphthalen-1-yl)phenyl)-1-oxa-9-azaspiro[5.5]undecan-3-yl)methyl)-6-oxo-6,8-dihydro-2H,7H-spiro[furo[2,3-e]isoindole-3,4′-piperidin]-7-yl)piperidine-2,6-dione] were more than 75%, less than 1 nM and less than 10 nM.
For `COc1cc(N2CCC3(CC[C@@H](CN4CCC5(CC4)COc4c5cc(Cl)c5c4CN([C@H]4CCC(=O)NC4=O)C5=O)CO3)CC2)c(F)cc1[C@@H]1c2ccc(O)cc2CC[C@@H]1c1ccccc1` [Compound A234, (S)-3-(5-chloro-1′-(((S)-9-(2-fluoro-4-((1S,2S)-6-hydroxy-2-phenyl-1,2,3,4-tetrahydronaphthalen-1-yl)-5-methoxyphenyl)-1-oxa-9-azaspiro[5.5]undecan-3-yl)methyl)-6-oxo-6,8-dihydro-2H,7H-spiro[furo[2,3-e]isoindole-3,4′-piperidin]-7-yl)piperidine-2,6-dione] the same measures were more than 75%, less than 1 nM and less than 10 nM.
Taken in the same sequence, the figures for `O=C1CC[C@H](N2Cc3c(ccc4c3OCC43CCN(CC4CC5(CCN(c6ccc([C@@H]7c8ccc(O)cc8CC[C@@H]7c7ccccc7)cc6)CC5)C4)CC3)C2=O)C(=O)N1` [Compound A181, (S)-3-(1′-((7-(4-((1R,2S)-6-hydroxy-2-phenyl-1,2,3,4-tetra-hydronaphthalen-1-yl)phenyl)-7-azaspiro[3.5]nonan-2-yl)-methyl)-6-oxo-6,8-dihydro-2H, 7H-spiro[furo[2,3-e]isoindole-3,4′-piperidin]-7-yl)piperidine-2,6-dione] were more than 75%, less than 1 nM and more than 100 nM.
Regarding `COc1c([C@@H]2c3ccc(O)cc3CC[C@@H]2c2ccccc2)ccc(N2CCC3(CC2)CC(CN2CCC4(CC2)COc2cc5c(cc24)CN([C@H]2CCC(=O)NC2=O)C5=O)C3)c1F` [Compound A199, (S)-3-(1′-((7-(2-fluoro-4-((1S, 2S)-6-hydroxy-2-phenyl-1,2,3,4-tetrahydronaphthalen-1-yl)-3-methoxyphenyl)-7-aza-spiro[3.5]nonan-2-yl)methyl)-7-oxo-5,7-dihydro-2H,6H-spiro[furo[2,3-f]isoindole-3,4′-piperidin]-6-yl)piperidine-2,6-dione], in assay [1] (setting [3]), the Dmax fell in the range of 50 to 75%. The DC50 in assay [1] (16 hrs treatment) is less than 1 nM. In assay [2], this compound had an IC50 of less than 10 nM.
On to `O=C1CC[C@H](N2Cc3cc4c(cc3C2=O)OC[C@@H]2CN(CC3CC5(CCN(c6cnc(C7c8ccc(O)cc8CCC7c7ccccc7)cn6)CC5)C3)CCN42)C(=O)N1` (stereo partly drawn) [Compound A194, (3S)-3-((4aS)-3-((7-(5-(6-hydroxy-2-phenyl-1,2,3,4-tetra-hydronaphthalen-1-yl)pyrazin-2-yl)-7-azaspiro[3.5]nonan-2-yl)methyl)-8-oxo-1,2,3,4,4a,5,8,10-octahydro-9H-pyrazino [1′,2′:4,5][1,4]oxazino[2,3-f]isoindol-9-yl)piperidine-2,6-dione], for which the Dmax in assay [1] (setting [4]) was more than 75%. In addition, the DC50 in assay [1] (16 hrs treatment) fell in the range of 1 to 10 nM. The IC50 in assay [2] is more than 100 nM.
Taken in the same sequence, the figures for `COc1cc(N2CC3(CC(CN4CCN5c6ccc7c(c6OC[C@H]5C4)CN([C@H]4CCC(=O)NC4=O)C7=O)C3)C2)c(F)cc1[C@@H]1c2ccc(O)cc2CC[C@@H]1c1ccccc1` [Compound A185, (S)-3-((R)-7-((2-(2-fluoro-4-((1S,2S)-6-hydroxy-2-phenyl-1,2,3,4-tetrahydronaphthalen-1-yl)-5-methoxyphenyl)-2-aza-spiro[3.3]heptan-6-yl)methyl)-1-oxo-1,3,5,5a,6,7,8,9-octa-hydro-2H-pyrazino[1′,2′:4,5] [1,4]oxazino[2,3-e]isoindol-2-yl)piperidine-2,6-dione] were more than 75%, less than 1 nM and more than 100 nM.
`COc1cc(N2CC(CCN3CCC4(CC3)COc3c4ccc4c3CN([C@H]3CCC(=O)NC3=O)C4=O)C2)c(F)cc1[C@@H]1c2ccc(O)cc2CC[C@@H]1c1ccccc1` [Compound A206, (S)-3-(1′-(2-(1-(2-fluoro-4-((1S,2S)-6-hydroxy-2-phenyl-1,2,3,4-tetrahydronaphthalen-1-yl)-5-methoxyphenyl)azet-idin-3-yl)ethyl)-6-oxo-6,8-dihydro-2H,7H-spiro[furo[2,3-e]isoindole-3,4′-piperidin]-7-yl)piperidine-2,6-dione]: in assay [1] (setting [3]), the Dmax was in the range of 50 to 75%. Besides, the DC50 in assay [1] (16 hrs treatment) lay within 1 to 10 nM. In addition, the 50% inhibitory concentration (IC50) in assay [2] is more than 100 nM.
Taken in the same sequence, the figures for `O=C1CC[C@H](N2Cc3cc4c(cc3C2=O)OCC42CCN(CC3CCC4(CC3)CN(c3ccc([C@@H]5c6ccc(O)cc6CC[C@@H]5c5ccccc5)cc3)C4)CC2)C(=O)N1` [Compound A178, (S)-3-(1′-((2-(4-((1R,2S)-6-hydroxy-2-phenyl-1,2,3,4-tetra-hydronaphthalen-1-yl)phenyl)-2-azaspiro[3.5]nonan-7-yl)-methyl)-7-oxo-5,7-dihydro-2H, 6H-spiro[furo[2,3-f]isoindole-3,4′-piperidin]-6-yl)piperidine-2,6-dione] were more than 75%, less than 1 nM and more than 100 nM.
